Patent US20090088466A1, “OPIOID RECEPTOR LIGANDS” (priority 2005, published 2009)

Tests used:
mouse μOR-YFP = target: T1, mouse μOR-YFP (Mus musculus, UniProt P42866); experiment: Agonist-induced internalization of μOR-YFP in HEK-293 cells; assay type: cell-based
T1 construct: expressed in transfected cells; host or cells: HEK-293 (transient; GRK2 co-transfected in panel C)

[1] = target: T2, hemagglutinin (HA-N-terminus) tagged mouse μOR (Mus musculus, UniProt P42866); experiment: Phospho-ERK1/2 immunoblot assay; assay type: cell-based
T2 construct: expressed in transfected cells

[2] = system: formalin-induced nociceptive responses; experiment: Formalin rat paw withdrawal test; assay type: in vivo
Text: Animals: Male Sprague-Dawley rats (Harlan, Indianapolis, Ind.) weighing 250-275 g were used. Rats were housed one to two per cage with free access to food and water, and maintained on a 12-h light/dark cycle in the Association for the Assessment and Accreditation of Laboratory Animal Care-approved animal care facility. The Institutional Animal Care and Use Committee of The University of Iowa approved all experimental procedures.
Formalin Rat Paw Withdrawal Test: Rats were placed in clear plexiglass testing chambers (30.5×30.5×30.5 cm) and allowed to acclimate for 20 minutes. A mirror was placed at a 45° angle below the floor to allow for an unobstructed view of the rats paws. No restraint was placed on the rats and a HEPA filter was continuously run in order to mask external noise. Following the 20-min acclimation period, animals received a 100 μL injection of either Compound Vb (˜0.04 mg/kg) or vehicle subcutaneously in the paw and were placed back into the testing chamber for 5 minutes (Joshi et al., 2000; Joshi and Gebhart, 2003). Animals were then injected with 100 μL of a 1.25% formalin solution into the plantar surface according to the methods previously described (Dubuisson, D. & Dennis, S. G., […], Pain 4, 161-74; Wheeler-Aceto, H. & Cowan, A., 1991, Psychopharmacology (Berl) 104, 35-44; and Kaneko, M. & Hammond, D. L., 1997, J Pharmacol Exp Ther 282, 928-38). Behavior was observed and tracked for 1 hour and the number of flinches was recorded using a Windows XP-based (Microsoft, Seattle, Wash.) program. Each drug treatment group consisted of 6 rats and no rat was tested more than once. For the antagonist studies, rats were pretreated with either nor-binaltorphimine (nor-BNI) (5 mg/kg, 24 hours prior to agonist) or naloxone (5 mg/kg s.c. 30 min prior to agonist) subcutaneously behind the neck.
Chronic study: Chronic animals were given vehicle or Compound Vb alternating dorsal and plantar surface to avoid sensitization caused from injections at the same site over a 5 day period. Following administration of drug on the fifth day, rats were then administered formalin and observed as described above.

[3] = target: T3, μOR1-D splice variant of the mouse μOR (Mus musculus, UniProt P42866); experiment: Agonist-induced μOR1-D-GFP internalization; assay type: cell-based; settings: HEK-293 transiently transfected with μOR1-D-GFP
T3 construct: expressed in transfected cells; host or cells: HEK-293 (transient)

HA-μOR = target: T4, HA-μOR (Mus musculus, UniProt P42866); experiment: Agonist-induced βarr2-GFP translocation to μOR in HEK-293 cells; assay type: cell-based
T4 construct: expressed in transfected cells; host or cells: HEK-293 (transient)

μOR = μOR (Homo sapiens, UniProt P35372); settings: CHO cells stably expressing each receptor type; cited from earlier work
Sequence of μOR (P35372 whole entry): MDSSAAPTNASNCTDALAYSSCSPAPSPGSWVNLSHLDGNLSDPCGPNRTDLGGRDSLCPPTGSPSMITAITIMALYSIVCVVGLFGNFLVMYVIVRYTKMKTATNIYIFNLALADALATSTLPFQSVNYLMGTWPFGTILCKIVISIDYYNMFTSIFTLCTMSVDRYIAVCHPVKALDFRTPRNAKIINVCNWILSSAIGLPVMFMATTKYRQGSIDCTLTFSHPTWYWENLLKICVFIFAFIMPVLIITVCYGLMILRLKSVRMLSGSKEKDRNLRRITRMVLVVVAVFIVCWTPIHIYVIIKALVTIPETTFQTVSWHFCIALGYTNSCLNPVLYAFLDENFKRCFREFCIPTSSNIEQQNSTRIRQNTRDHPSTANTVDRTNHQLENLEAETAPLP

HA-N-terminus tagged μOR = target: T5, HA-N-terminus tagged μOR (Mus musculus, UniProt P42866); experiment: Immunofluorescence of cell surface receptors; assay type: cell-based; settings: intact nonpermeabilized HEK-293 cells; drug treatment over 2 hours
T5 construct: expressed in transfected cells

κOR = κOR (Homo sapiens, UniProt P41145); settings: cited from earlier work
Sequence of κOR (P41145 whole entry): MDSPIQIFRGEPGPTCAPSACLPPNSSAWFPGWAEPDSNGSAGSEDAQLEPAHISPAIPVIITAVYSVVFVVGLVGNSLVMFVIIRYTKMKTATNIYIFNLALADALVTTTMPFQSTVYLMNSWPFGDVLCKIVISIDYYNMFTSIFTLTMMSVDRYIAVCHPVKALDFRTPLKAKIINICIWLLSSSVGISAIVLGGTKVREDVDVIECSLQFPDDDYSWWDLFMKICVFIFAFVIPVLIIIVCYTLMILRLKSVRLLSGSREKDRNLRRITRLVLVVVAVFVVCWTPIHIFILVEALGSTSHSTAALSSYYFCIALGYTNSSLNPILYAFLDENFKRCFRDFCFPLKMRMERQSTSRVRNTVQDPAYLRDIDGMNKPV

δOR = δOR (Homo sapiens, UniProt P41143); settings: CHO cells stably expressing each receptor type; cited from earlier work
Sequence of δOR (P41143 whole entry): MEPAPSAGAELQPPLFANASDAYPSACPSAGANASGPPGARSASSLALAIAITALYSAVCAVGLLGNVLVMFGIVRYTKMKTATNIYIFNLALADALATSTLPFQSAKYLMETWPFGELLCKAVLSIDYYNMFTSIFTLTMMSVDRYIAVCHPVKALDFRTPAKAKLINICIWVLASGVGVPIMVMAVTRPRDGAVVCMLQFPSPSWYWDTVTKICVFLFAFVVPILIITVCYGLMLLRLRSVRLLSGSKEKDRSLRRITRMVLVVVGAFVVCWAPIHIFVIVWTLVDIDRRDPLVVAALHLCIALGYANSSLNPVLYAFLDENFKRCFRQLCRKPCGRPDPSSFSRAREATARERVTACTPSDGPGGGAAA

[4] = target: T6, HA-tagged mu opioid receptor (Mus musculus, UniProt P42866); experiment: Immunoprecipitation / μOR phosphorylation at serine 375; assay type: cell-based; settings: HEK-293 cells stably expressing HA-tagged μOR; 10 μM, 10 min
T6 construct: expressed in transfected cells

[5] = system: formalin-induced nociceptive responses; settings: similar testing conditions (literature); cited from earlier work
[6] = HEK-293 transiently transfected with mouse μOR-YFP

SMILES: COC(=O)[C@@H]1C[C@H](OC(=O)c2ccccc2Br)C(=O)[C@@H]2[C@@]3(C)C[C@@H](c4ccoc4)OC(=O)[C@H]3CC[C@]21C
- melting point: 189 to 191 °C

SMILES: COC(=O)[C@@H]1C[C@H](OC(=O)c2cccc(Br)c2)C(=O)[C@@H]2[C@@]3(C)C[C@@H](c4ccoc4)OC(=O)[C@H]3CC[C@]21C
- melting point: 195 to 199 °C

SMILES: COC(=O)[C@@H]1C[C@H](OC(=O)c2cccs2)C(=O)[C@H]2[C@@]1(C)CC[C@H]1C(=O)O[C@H](c3ccoc3)C[C@]21C
- melting point: 143 to 145 °C

SMILES: COC(=O)[C@@H]1C[C@H](OC(=O)c2ccsc2)C(=O)[C@H]2[C@@]1(C)CC[C@H]1C(=O)O[C@H](c3ccoc3)C[C@]21C
- melting point: 211 to 212 °C

SMILES: COC(=O)[C@@H]1C[C@H](OC(=O)c2cc3ccccc3o2)C(=O)[C@H]2[C@@]1(C)CC[C@H]1C(=O)O[C@H](c3ccoc3)C[C@]21C
- melting point: 226 to 227 °C

SMILES: COC(=O)[C@@H]1C[C@H](OS(=O)(=O)c2ccccc2)C(=O)[C@@H]2[C@@]3(C)C[C@@H](c4ccoc4)OC(=O)[C@H]3CC[C@]21C
- melting point: 157 to 159 °C (dec.)

SMILES: COC(=O)[C@@H]1C[C@H](OS(=O)(=O)c2ccc(C)cc2)C(=O)[C@@H]2[C@@]3(C)C[C@@H](c4ccoc4)OC(=O)[C@H]3CC[C@]21C
- melting point: 163 to 165 °C (dec.)

SMILES: COC(=O)[C@@H]1C[C@H](OS(=O)(=O)c2ccc(OC)cc2)C(=O)[C@@H]2[C@@]3(C)C[C@@H](c4ccoc4)OC(=O)[C@H]3CC[C@]21C
- melting point: 148 to 149 °C (dec.)

SMILES: COC(=O)[C@@H]1C[C@H](OC(=O)Nc2ccc([N+](=O)[O-])cc2)C(=O)[C@H]2[C@@]1(C)CC[C@H]1C(=O)O[C@H](c3ccoc3)C[C@]21C
- melting point: 251 to 253 °C

SMILES: COC(=O)[C@@H]1C[C@H](OC(=O)Cc2ccccc2)C(=O)[C@@H]2[C@@]3(C)C[C@@H](c4ccoc4)OC(=O)[C@H]3CC[C@]21C
- melting point: 111 to 114 °C

SMILES: COC(=O)[C@@H]1C[C@@H](C(=O)CCc2ccccc2)C(=O)[C@@H]2[C@@]3(C)C[C@@H](c4ccoc4)OC(=O)[C@H]3CC[C@]21C
- melting point: 155 to 158 °C

SMILES: COC(=O)[C@@H]1C[C@H](OC(=O)c2ccccc2)C(=O)[C@H]2[C@@]1(C)CC[C@H]1C(=O)OC(c3ccoc3)C[C@]21C (stereo partly shown) [Compound Vb]
- μOR-YFP internalization (mouse μOR-YFP; HEK-293 overexpressing GRK2 (5 μg cDNA)): does not
- μOR-YFP internalization (mouse μOR-YFP; [6]): do not induce receptor internalization
- ERK1/2 phosphorylation ([1]; HEK-293 cells stably expressing HA-tagged mouse μOR, 10 min stimulation): dose dependently activates the Map Kinases, ERK1/2, in a μOR antagonist reversible manner
- Compound Vb-induced ERK activation after naloxone pretreatment ([1]; naloxone 10 μM during the 30 min serum starvation): blocked
- total number of flinches in second phase of formalin test ([2]; acute (Day 1) and chronic (Day 5) vs vehicle): significantly inhibits formalin-induced flinching compared to vehicle in both treatment paradigms
- antinociception Day 5 vs Day 1 ([2]; chronic treatment 5 days): significantly more Compound Vb-induced antinociception than seen on Day 1
- antinociception after naloxone pretreatment ([2]; naloxone 5 mg/kg s.c. 30 min prior): reversible by naloxone pretreatment
- antinociception after nor-BNI pretreatment ([2]; nor-BNI 5 mg/kg s.c. 24 hours prior): did not block Compound Vb's efficacy but rather significantly enhanced it
- development of antinociceptive tolerance ([2]; repeated administration, 5 days): did not lead to the development of antinociceptive tolerance
- antinociception in formalin paw-withdrawal test ([2]; ˜0.04 mg/kg s.c. paw, 5 min prior to 1.25% formalin, acute): produced significant antinociception in the second phase
- μOR1-D internalization [3]: fails to internalize this receptor variant
- βarr2-GFP translocation (HA-μOR; HEK-293, 2 μM, 10 min): does not induce βarr2-GFP translocation
- βarr2-GFP translocation (HA-μOR; HEK-293 overexpressing GRK2, 2 μM, 10 min): does not promote βarr2-GFP translocation
- βarr2-GFP translocation (HA-μOR; HEK-293 overexpressing GRK2, 100 μM, 30 min): does not promote βarr2-GFP translocation
- affinity for μOR relative to κOR (μOR): greater affinity for μOR over κOR
- loss of cell surface receptors (HA-N-terminus tagged μOR): maintain the same level of cell surface receptor expression
- affinity at κOR (κOR): retains some affinity
- affinity for δOR (δOR): no affinity
- μOR phosphorylation at serine 375 [4]: does not promote robust phosphorylation

SMILES: C[C@@H](NC(=O)[C@@H](N)Cc1ccc(O)cc1)C(=O)NCC(=O)N(C)[C@@H](Cc1ccccc1)C(=O)NCCO [DAMGO, [D-Ala^2, N-MePhe^4, Gly^5-ol]Enkephalin, reference compound]
- μOR-YFP internalization (mouse μOR-YFP; [6]): Internalization can be seen
- βarr2-GFP translocation (HA-μOR; HEK-293, 1 μM): leads to βarr2-GFP translocation within 5 min
- loss of cell surface receptors (HA-N-terminus tagged μOR): 40%

SMILES: CN1CC[C@]23c4c5ccc(O)c4O[C@H]2[C@@H](O)C=C[C@H]3[C@H]1C5 [morphine]
- development of tolerance [5]: produces tolerance
